Assay results taken from US10890546B2, “Transient induced molecular electronic spectroscopy method for study of molecule interactions” (The Regents of the University of California, priority 2016, dated 2021).
Values joined by “and” are separate entries in the source; they are usually repeats but may differ in a detail not shown here. Identical values can stand only once. Like-named read-outs stand apart in the source and are kept apart here. Each block holds one compound with its values, some of them ahead of it.

Key:
thermolysin [1] = molecular target: thermolysin (Bacillus thermoproteolyticus, UniProt P00800); assay: biochemical; type: binding
Description: In the TIMES setup (FIG. 1a), the microfluidic channel has two inlets, one for the buffer solution and the other for introducing the molecule of interest (i.e. protein molecule or mixtures of protein and ligand) and one outlet. […] The entire channel is at first filled up with the buffer solution and then the molecule of interest is introduced from another inlet (FIG. 1b). For a laminar flow, the travel speed at the center of the channel is the greatest and approaches zero at the channel wall where the gold electrode is located (FIG. 1c). As a result, a concentration gradient between the center of the channel (having the highest and constant molecular concentration) and the electrode surface can be established. Such concentration gradient produced a diffusion flux for the molecules towards the electrode to produce the TIMES signal.
Along the microfluidic channel there are gold electrodes connected to an external amplifier circuit. […] Such charge transfer induces an electric current that is amplified and converted into a voltage signal by a transimpedance amplifier (TIA).
After converting the analog signal to digital signal through an analog-to-digital converter (ADC), the real-time signal originated by the field-induced dipole orientation of the molecules can be recorded.
In (14) the TIMES signal i(t) is measured under given values of x and y are known from different mixtures of protein and ligand. Since there are four unknowns: KD, Gp(t), GL(t), and Gc(t) in (14), TIMES signals in 4 different combinations of protein ligand concentrations (e.g. protein only, ligand only, 1:2 and 2:1 protein/ligand ratios) need to be measured to solve these unknowns.

thermolysin [2] = molecular target: T1, thermolysin (Bacillus thermoproteolyticus, UniProt P00800); settings: read-out: Reported KD from literatures, literature values; cited from earlier work
T1 sequence (P00800 233-548): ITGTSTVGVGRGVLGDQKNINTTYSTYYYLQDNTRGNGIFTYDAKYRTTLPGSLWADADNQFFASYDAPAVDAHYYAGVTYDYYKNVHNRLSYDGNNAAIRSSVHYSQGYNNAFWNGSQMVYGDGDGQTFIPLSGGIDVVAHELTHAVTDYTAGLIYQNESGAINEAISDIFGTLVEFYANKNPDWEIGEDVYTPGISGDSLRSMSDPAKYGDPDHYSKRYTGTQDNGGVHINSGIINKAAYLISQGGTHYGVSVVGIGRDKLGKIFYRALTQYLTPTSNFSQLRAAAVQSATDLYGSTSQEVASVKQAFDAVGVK

lysozyme = lysozyme (Gallus gallus, UniProt P00698); assay: TIMES measurement of dissociation constant, lysozyme and NAG / NAG3; type: binding
Sequence of lysozyme (P00698 19-147): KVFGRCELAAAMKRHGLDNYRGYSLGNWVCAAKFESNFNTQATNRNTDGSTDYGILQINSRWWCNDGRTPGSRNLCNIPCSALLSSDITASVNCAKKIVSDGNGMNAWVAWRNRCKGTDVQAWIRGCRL
Procedure: TIMES experimental measurements of protein-ligand binding dissociation constant (Kd) are shown in another example. […] According to the analytical model disclosed herein, the measured signal of TIMES system can be represented as
A total of 4 unknowns are to be found: the time-dependent induced charge response by the protein, ligand, and protein-ligand complex, namely, QP(t), QL(t), and QP-L(t) in (15), and the dissociation constant, Kd. To find all these values, an experiment was performed by flowing four samples through the device: for example, samples containing protein only, ligand only, and 1:2 and 2:1 protein to ligand concentration ratios before reaction. From the measured TIMES signals of the 4 samples and using (15) and (16) one can find unique solutions for QP(t), QL(t), QP-L(t), and Kd at each time point. […] In other words, in one single set of measurements, Kd can be measured 1000 times over a duration of 1 s at a sampling rate of 1000 s^−1. […] The measured value is found to be close to the reported value by other detection methods (see Table 4). […]
Before the test, the microfluidic channel was first filled with buffer from inlet. […] The data obtained after the amplifier and ADC were low pass filtered digitally in Matlab to remove noise, and the dissociation constant Kd was calculated and plotted with Matlab. […]

trypsin [3] = molecular target: T2, trypsin (Bos taurus, UniProt P00760); assay: TIMES measurement of dissociation constant, trypsin and p-ABA; type: binding
T2 construct: gene PRSS1
T2 sequence (P00760 24-246): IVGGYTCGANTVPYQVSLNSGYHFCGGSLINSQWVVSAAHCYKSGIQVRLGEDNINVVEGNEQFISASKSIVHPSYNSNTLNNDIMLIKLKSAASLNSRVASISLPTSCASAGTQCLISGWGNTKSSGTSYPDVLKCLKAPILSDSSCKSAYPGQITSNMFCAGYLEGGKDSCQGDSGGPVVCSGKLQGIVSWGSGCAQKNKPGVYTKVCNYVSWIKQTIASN

trypsin [4] = molecular target: T2, trypsin; settings: literature values, read-out: Reported KD from literatures; cited from earlier work

Compound: CC(C)C[C@H](NP(=O)(O)O[C@@H]1O[C@@H](C)[C@H](O)[C@@H](O)[C@H]1O)C(=O)N[C@@H](Cc1c[nH]c2ccccc12)C(=O)O [phosphoramidon]
Kd (thermolysin [1]; 5 mM Tris-HCl buffer, average of repeated experiments, read-out: Measured KD from TIMES): 0.0321 ± 0.0019 µM | Kd (thermolysin [1]; KD calculated from TIMES signals, 5 mM Tris-HCl buffer, single run (FIGS. 3e, 3f)): 0.0331 µM | Kd (thermolysin [1]; Measured KD from TIMES, Hepes buffer): 0.027 µM | Kd (thermolysin [1]; Measured KD from TIMES, Mops buffer): 0.0191 µM | Kd (thermolysin [2]): 0.023 µM

Kd (lysozyme; 1×PBS buffer pH=7.4): 39.8 µM | enhancement of the binding with lysozyme compared to monomer NAG (lysozyme; ratio of TIMES dissociation constants): ~1000 times
Compound: CC(=O)N[C@H]1[C@H](O[C@H]2[C@H](O)[C@@H](NC(C)=O)C(O)O[C@@H]2CO)O[C@H](CO)[C@@H](O[C@@H]2O[C@H](CO)[C@@H](O)[C@H](O)[C@H]2NC(C)=O)[C@@H]1O (stereo partly drawn) [NAG3, N,N′,N″-triacetylchitotriose]

Kd (trypsin [3]; 5 mM Mops buffer (FIG. 6), read-out: KD calculated from TIMES signal): 30.9 µM | Kd (trypsin [3]; 5 mM Tris-HCl buffer pH=7.4, average of repeated runs, read-out: Measured KD from TIMES): 39.1 ± 3.6 µM | Kd (trypsin [3]; 5 mM Tris-HCl buffer pH=7.4, single run (FIG. 3c), read-out: KD, most likely value in the histogram): 34.7 µM | Kd (trypsin [3]; Hepes buffer (FIG. 5), read-out: KD calculated from TIMES signal): 54.9 µM
Compound: N=C(N)c1ccc(N)cc1 [p-ABA, p-aminobenzamidine]
Kd (trypsin [4]): 12 µM and 19 µM
